Where “and” joins values, the source holds several entries; their conditions need not be identical. Equal values may be shown once. Entries after “also recorded” stand apart in the source; their conditions may differ.
Assays:
[1] = system: CaV1.2 (α1C+β2B) channels in HEK293T cells; experiment: Perforated whole-cell patch clamp of Ba2+ current, forskolin stimulation of CaV1.2 reconstituted in HEK293T cells; format: cell-based, rabbit α1C, human β2B, mouse Rad
Excerpt: The robust heterologous reconstitution of PKA regulation of L-type Ca^2+ currents has been long pursued as a crucial step. […] To preserve the normal intracellular milieu and signaling cascades, the inventors used perforated, whole-cell patch clamp to assess function. The inventors used Ba^2+ as the charge carrier to minimize inactivation and depolarized the membrane potential with either a voltage step to 0 mV or a voltage ramp from −60 mV to +60 mV.
In the above, with regard to clone construction and cell culture, all mouse N-terminal-GFP-tagged mouse Rad (accession #XM_006531206) constructs in a pEGFP-C1 vector were generated by gene-synthesis (Gene Universal). The human CaV2.2 (pSAD442-1) was a gift from Diane Lipscombe (Addgene plasmid #62574). HEK293T cells were cultured in DMEM with 10% FBS, 1% Pen/Strep, and transfected with 3 μg rabbit α1C (accession #X15539) or α1B (for CaV2.2 experiments), 3 μg human β2B (NM-201590.3) and 0.5 μg N-terminal-GFP-tagged mouse Rad using Lipofectamine 2000 (Thermo Fisher Scientific). The media was changed 4-6 hours after transfection. The cells were split onto coverslips coated with attachment factor protein (Gibco). Electrophysiological recordings were carried out at room temperature 24-48 hours after transfection.
For HEK293T cell experiments involving the forskolin-induced stimulation of CaV1.2 and CaV2.2 currents, perforated whole-cell patch clamp technique was implemented to minimize current run-down and preserve the intracellular milieu. Amphotericin B (Sigma A9528) was initially dissolved in DMSO (20 mg/ml) and used in the pipette solution at a final concentration of 200 μg/ml. The tip of the pipette was filled with amphotericin-free solution (in mM): 80 Cesium Gluconate, 40 CsCI, 10 HEPES, 10 BAPTA, 1 MgCl2, 1 Mg-ATP, pH adjusted to 7.2 with CsOH. The pipette was backfilled with (in mM): 125 CsCI, 10 HEPES, 4 CaCl2, 1 MgCl2, pH-7.2 with CsOH; containing amphotericin, 200 μg/ml. CaCl2 (4 mM) was added to the intracellular patch electrode solution to enable the detection of conversion from perforated to ruptured configuration. The external solution contained (in mM): 130 tetraethylammonium methanesulfonate, 10 HEPES, 1 MgCl2, 10 (with Rad expression) or 2 (without Rad expression) BaCI2, 5 Glucose, pH adjusted to pH 7.4 with CsOH. For experiments with HEK293T cells, in addition to step protocols, we used a ramp protocol with a 200 ms voltage ramp from −60 mV (or −70 mV for CaV1.3) to +60 mV applied every 10 s- to monitor the near-steady-state I-V relationship. All experiments were performed at room temperature, 22±1° C. Cells were selected based on co-transfection of a vector containing GFP in the absence of Rad, and GFP-conjugated Rad for the experiments with Rad transfected. For both cardiomyocytes and HEK293 cells, cells without a stable baseline (potentially due to run-down or run-up) were not studied.
The voltage steps protocol used in cardiomyocytes studies evaluated IIpeak=Ipeak (V), which was recalculated in […] to G=G(V) as G=I/(V−Erev). For HEK cells experiments, the inventors used a ramp protocol (FIG. 17B). The experimental records were I=I(t), where t=time. The inventors transformed these records to I=I(V), which were then further transformed to G=G(V) in […] (FIG. 17B).

[2] = system: CaV1.3 (α1D+β2B) channels in HEK293T cells; experiment: Perforated whole-cell patch clamp of Ba2+ current, forskolin stimulation of CaV1.3 in HEK293T cells; format: cell-based; details: cells expressing α1D+β2B+Rad
Protocol: In adrenal chromaffin cells and the sinus node cells of the heart, L-type CaV1.3 channels are robustly stimulated by PKA. […] Thus, like CaV1.2, Rad is the missing ingredient. For HEK293T cell experiments involving the forskolin-induced stimulation of CaV1.2 and CaV2.2 currents, perforated whole-cell patch clamp technique was implemented to minimize current run-down and preserve the intracellular milieu. Amphotericin B (Sigma A9528) was initially dissolved in DMSO (20 mg/ml) and used in the pipette solution at a final concentration of 200 μg/ml. The tip of the pipette was filled with amphotericin-free solution (in mM): 80 Cesium Gluconate, 40 CsCI, 10 HEPES, 10 BAPTA, 1 MgCl2, 1 Mg-ATP, pH adjusted to 7.2 with CsOH. The pipette was backfilled with (in mM): 125 CsCI, 10 HEPES, 4 CaCl2, 1 MgCl2, pH-7.2 with CsOH; containing amphotericin, 200 μg/ml. CaCl2 (4 mM) was added to the intracellular patch electrode solution to enable the detection of conversion from perforated to ruptured configuration. […] For experiments with HEK293T cells, in addition to step protocols, we used a ramp protocol with a 200 ms voltage ramp from -60 mV (or -70 mV for CaV1.3) to +60 mV applied every 10 s- to monitor the near-steady-state I-V relationship. All experiments were performed at room temperature, 22±1° C. Cells were selected based on co-transfection of a vector containing GFP in the absence of Rad, and GFP-conjugated Rad for the experiments with Rad transfected. For both cardiomyocytes and HEK293 cells, cells without a stable baseline (potentially due to run-down or run-up) were not studied. The voltage steps protocol used in cardiomyocytes studies evaluated […]), which was recalculated in […] to G=G(V) as […]). For HEK cells experiments, the inventors used a ramp protocol (FIG. 17B). The experimental records were I=I(t), where t=time. The inventors transformed these records to I=I(V), which were then further transformed to G=G(V) in […]). The parameters of voltage-dependent activation were obtained using a modified Boltzmann distribution. […]

[3] = system: CaV2.2 (α1B+β2B) channels in HEK cells; experiment: Perforated whole-cell patch clamp of Ba2+ current, forskolin stimulation of CaV2.2 in HEK cells; format: cell-based, human
Excerpt: N-type Ca^2+ channels (CaV2.2) are widely expressed, play an essential role in neurotransmitter release, and are targets for the development of drugs to relieve chronic pain. The inventors expressed the CaV2.2 α1B subunit with β2B and Rad in HEK cells. […] Attenuating binding of Rad […] prevented the forskolin-induced modulation of CaV2.2 current (FIG. 19F). In the above, with regard to clone construction and cell culture, all mouse N-terminal-GFP-tagged mouse Rad (accession #XM_006531206) constructs in a pEGFP-C1 vector were generated by gene-synthesis (Gene Universal). The human CaV2.2 (pSAD442-1) was a gift from Diane Lipscombe (Addgene plasmid #62574). […] The media was changed 4-6 hours after transfection. The cells were split onto coverslips coated with attachment factor protein (Gibco). Electrophysiological recordings were carried out at room temperature 24-48 hours after transfection. For HEK293T cell experiments involving the forskolin-induced stimulation of CaV1.2 and CaV2.2 currents, perforated whole-cell patch clamp technique was implemented to minimize current run-down and preserve the intracellular milieu. Amphotericin B (Sigma A9528) was initially dissolved in DMSO (20 mg/ml) and used in the pipette solution at a final concentration of 200 μg/ml. The tip of the pipette was filled with amphotericin-free solution (in mM): 80 Cesium Gluconate, 40 CsCI, 10 HEPES, 10 BAPTA, 1 MgCl2, 1 Mg-ATP, pH adjusted to 7.2 with CsOH. The pipette was backfilled with (in mM): 125 CsCI, 10 HEPES, 4 CaCl2, 1 MgCl2, pH-7.2 with CsOH; containing amphotericin, 200 μg/ml. CaCl2 (4 mM) was added to the intracellular patch electrode solution to enable the detection of conversion from perforated to ruptured configuration. […] For experiments with HEK293T cells, in addition to step protocols, we used a ramp protocol with a 200 ms voltage ramp from -60 mV (or -70 mV for CaV1.3) to +60 mV applied every 10 s- to monitor the near-steady-state I-V relationship. All experiments were performed at room temperature, 22±1° C. Cells were selected based on co-transfection of a vector containing GFP in the absence of Rad, and GFP-conjugated Rad for the experiments with Rad transfected. For both cardiomyocytes and HEK293 cells, cells without a stable baseline (potentially due to run-down or run-up) were not studied. The voltage steps protocol used in cardiomyocytes studies evaluated […]), which was recalculated in […] to G=G(V) as […]). For HEK cells experiments, the inventors used a ramp protocol (FIG. 17B). The experimental records were I=I(t), where t=time. The inventors transformed these records to I=I(V), which were then further transformed to G=G(V) in […]). The parameters of voltage-dependent activation were obtained using a modified Boltzmann distribution. […]

[4] = system: CaV1.2 channels in cardiomyocytes; experiment: Whole-cell patch clamp of nisoldipine-insensitive Ca2+ current in cardiomyocytes of transgenic mice; format: cell-based, mouse
Excerpt: With regard to the isolation of adult cardiac myocytes, mice ventricular myocytes were isolated by enzymatic digestion using a Langendorff perfusion apparatus. Cardiomyocytes were isolated from 8-12 week-old non-transgenic and transgenic mice.
With regard to whole cell patch clamp electrophysiology, isolated cardiomyocytes or HEK cells on glass 8×8 mm coverslips were placed in Bioptechs Delta T Dishes filled with solution containing (in mM): 112 NaCl, 5.4 KCl, 1.7 NaH2PO4. 1.6 MgCl2, 20.4 HEPES (pH 7.2), 30 Taurine, 2 DL-Carnitine, 10.3 Creatine, 5.4 Glucose. The petri dishes were mounted on the stage of an inverted microscope and served as a perfusion chamber. After establishing a seal and achieving whole-cell configuration, external solutions were changed by fast local perfusion method.
For cardiomyocytes, pipette resistance was between 1-3 ma Membrane currents were measured by conventional (ruptured) whole-cell patch-clamp method using a MultiClamp 700B or Axopath200B amplifier and pCLAMP 10.7 software (Molecular Devices). Capacitance transients and series resistance were compensated. Voltage was corrected for liquid junction potential (−10 mV) during analysis. Leak currents were subtracted by a P/4 protocol. […]

[5] = system: CaV1.2 neighbourhood proteins (Rad, PKA catalytic subunit, Sorbs2); experiment: APEX2 proximity labeling with TMT SPS MS3 in isolated cardiomyocytes, isoproterenol vs. no isoproterenol; format: cell-based, mouse; details: for decrease in Rad (proximity labeling, iso vs. no iso) / increase in PKA catalytic subunit (proximity labeling, iso vs. no iso): 1 μM isoproterenol, 10 minutes
Protocol: Thus, proximity-labeling in cardiomyocytes treated with isoproterenol was compared to untreated controls. Cardiomyocytes were enzymatically isolated from two α1C-APEX2 mice, mixed, loaded with biotin-phenol and exposed to isoproterenol or vehicle for 10 minutes at room temperature. For the final minute, labeling was initiated with H2O2. This was repeated for myocytes from 4 additional sets of mice (total: 5 sets of biological replicates; 10 mice). Biotinylated proteins were purified and detected using TMT SPS MS^3. The isobaric labeling allowed simultaneous quantification of all proteins measured rather than just a select subset, thus enabling statistical analysis of relative enrichment between vehicle and isoproterenol treatment. Candidates in the upper left quadrant have reduced labeling (likely indicating reduced proximity) after isoproterenol and candidates in the upper right quadrant have increased labeling (likely indicating increased proximity) after isoproterenol. Mitochondrial/nuclear proteins were removed from the analysis.
For the proximity labeling, isolated ventricular cardiomyocytes were incubated in labeling solution with 0.5 μM biotin-phenol (Iris-biotech) for 30 minutes. During the final 10 minutes of labeling, 1 μM isoproterenol (Sigma 15627) was added. To initiate labeling, H2O2 (Sigma H1009) was added to a final concentration of 1 mM for 1 min Exactly 1 minute after H2O2 treatment, the cells were washed three times with cold quenching solution containing (in mM) 10 Sodium ascorbate (VWR 95035-692), 5 Trolox (Sigma 238813), and 10 Sodium azide (Sigma S2002). After the cells were harvested by centrifugation, the quenching solution was aspirated and the pellet was flash-frozen and stored at −80° C. until streptavidin pull-down.
With regard to the processing of biotinylated proteins for mass spectrometry, proteins were precipitated with Trichloroacetic acid (TCA; Sigma T9159) and then centrifuged at 21,130×g at 4° C. for 10 minutes. The pellet was washed with −20° C. cold acetone (Sigma 650501), vortexed, and centrifuged at 21,130×g at 4° C. for 10 minutes. Following centrifugation, acetone was aspirated and the pellet was acetone-washed again three more times.

[6] = system: Rad in CaV1.2 neighbourhood; experiment: APEX2 proximity labeling with TMT mass spectrometry in Langendorff-perfused α1C-APEX2 hearts; set-up: species or system mouse; details: Langendorff-perfused α1C-APEX2 whole hearts; 1 μM isoproterenol, 5 minutes
Protocol: The inventors also probed the impact of isoproterenol on the CaV1.2 proteome signature in Langendorff-perfused whole hearts (FIG. 9B), tracking 2,610 proteins from 10 hearts in parallel (FIG. 6K, FIG. 15C and FIG. 16A). The inventors monitored phospholamban phosphorylation to confirm that the β-adrenergic signaling pathway in cardiomyocytes is preserved in the presence of biotin-phenol and H2O2 (FIG. 14C and FIG. 14D).
For biotinylation in Langendorff-perfused hearts, mice were injected with 5 mg/kg propranolol-HCl (Sigma PHR1308) to suppress adrenergic stimulation during the isoflurane anesthesia and cardiectomy. Hearts were retrograde perfused with Krebs' solution for 10 minutes prior to addition of biotin-phenol for 15 minutes. During the final 5 minutes, 1 μM Isoproterenol (Sigma 1351005) or vehicle was added to the perfusate. The hearts were then perfused with 1 mM H2O2 for 1 minute, followed by 3-minutes of perfusion of quenching solution. Electrocardiograms were monitored throughout the experiment to ensure viability of the preparation and an isoproterenol-induced increase in heart rate. […]

[7] = system: Rad; experiment: Whole cell proteomics (TMT SPS MS3) of non-transgenic cardiomyocytes, isoproterenol vs. no isoproterenol; format: cell-based, mouse; details: non-transgenic (NTG) mice cardiomyocytes; 10-minute isoproterenol
Protocol: With regard to whole cell proteomics, specifically cell lysis, protein digest and TMT labeling mass spectrometry analysis, the cells were lysed by homogenization (QIAshredder cartridges, Qiagen) in lysis buffer (2% SDS, 150 mM NaCl, 50 mM Tris pH 7.4). Lysates were reduced with 5 mM DTT, alkylated with 15 mM iodoacetamide for 30 minutes in the dark, alkylation reactions quenched with freshly prepared DTT added to a concentration of 50 mM and proteins precipitated by methanol/chloroform precipitation. Digests were carried out in 1M urea freshly prepared in 200 mM EPPS pH 8.5 in presence of 2% acetonitrile (v/v) with LysC (Wako, 2 mg/ml, used 1:75 w/w protease:substrates during digest) for 3 hours at room temperature and after subsequent addition of trypsin (Promega #V5111, stock 1:100 w/w protease:substrates) over night at 37° C. Missed cleavage rate was assayed from a small aliquot by mass spectrometry. […]
For the mass spectrometry analysis, data collection followed a MultiNotch MS^3 TMT method using an Orbitrap Lumos mass spectrometer coupled to a Proxeon EASY-nLC 1200 liquid chromatography (LC) system (both Thermo Fisher Scientific). […] In order to obtain quantitative information, MS^3 precursors were fragmented by high-energy collision-induced dissociation (HCD) and analyzed in the Orbitrap at a resolution of 50,000 at 200 Th. […]

[8] = system: CFP-tagged Rad localization in cardiomyocytes; experiment: Confocal fluorescence of CFP-Rad at membrane and in cytosol of cardiomyocytes before and after isoproterenol; format: cell-based; details: CFP-Rad adenovirus-infected rat cardiomyocytes; 5 minutes after superfusion
Excerpt: Mass spectrometry identified phosphorylated proteins from biotinylated, streptavidin-purified samples from APEX2 mice, and from whole hearts of wild-type (WT) mice treated with isoproterenol. […] Rad, a member of the RGK family of GTP-binding proteins, is an inhibitor of voltage-gated Ca^2+ channels and is also a PKA target. […] To further explore whether β-agonists can alter membrane-localization of Rad relative, rat cardiomyocytes were infected with adenoviruses harboring cyan fluorescent protein (CFP)-tagged Rad. The fluorescence of CFP-Rad at the membrane and in the cytosol was quantified before and after isoproterenol. The number of exposures were limited to avoid photo-bleaching.

[9] = HEK cells expressing 35-mutant α1C+28-mutant β2B+Rad
[10] = cells expressing α1C+β2B+Rad, forskolin vs. no forskolin
[11] = CaV2.2 α1B+β2B co-expressed with Rad
[12] = CaV2.2 α1B+β2B co-expressed with Rem

**Q.** How did the “increase of Gmax, as much as” value [1, 9] turn out when `C=C[C@@]1(C)CC(=O)[C@]2(O)[C@@]3(C)[C@@H](O)CCC(C)(C)[C@@H]3[C@H](O)[C@H](OC(C)=O)[C@@]2(C)O1` [forskolin] was run?
**A.** ≤ 3.1 fold

**Q.** And the “increase of Gmax, mean” value [1, 9]?
**A.** 1.9 fold

**Q.** And the “shift of V50 for activation” value [1, 9]?
**A.** −3.3 mV

**Q.** And the “increase of Gmax, mean” value ([1]; cells expressing 9*-α1C, β2B and Rad)?
**A.** 1.6 fold

**Q.** And the “shift of V50 for activation” value ([1]; cells expressing α1C+β2B+Rad)?
**A.** −5 mV

**Q.** What about the “increase of maximal conductance (Gmax), as much as” value [1, 10] of the same compound?
**A.** ≤ 4.5 fold

**Q.** What about the “increase of maximal conductance (Gmax), mean” value [1, 10] of the same compound?
**A.** 1.5 fold and 1.6 fold

**Q.** And the “increase of Gmax, as much as” value [2]?
**A.** ≤ 2.3 fold

**Q.** And the “increase of Gmax, mean” value [2]?
**A.** 1.9 fold

**Q.** And the “shift of V50 for activation” value [2]?
**A.** −4.3 mV

**Q.** What about the “increase of Gmax, mean” value [3, 11] of the same compound?
**A.** 2.2 fold

**Q.** What about the “shift of V50 for activation” value [3, 11] of the same compound?
**A.** −3.7 mV

**Q.** What about the “increase of Gmax” value [3, 12] of the same compound?
**A.** 1.6 fold

**Q.** And the “shift of V50 for activation” value [3, 12]?
**A.** −4.2 mV

**Q.** What about the “increase of Gmax, mean” value ([4]; 9* exon-containing CaV1.2 channels) of the same compound?
**A.** 1.4 fold

**Q.** And the “increase of nisoldipine-insensitive maximal conductance (Gmax), mean” value ([4]; transgenic pWT α1C cardiomyocytes, 10 μM forskolin)?
**A.** 1.4 fold

**Q.** For `CC(C)NCC(O)c1ccc(O)c(O)c1` (centres unmarked) [isoproterenol], which “decrease in the amount of Rad, all three approaches” value ([5]; α1C-APEX2 and β2B-APEX2 cardiomyocytes and α1C-APEX2 whole hearts) is on record?
**A.** 30-50%

**Q.** What about the “decrease in Rad (proximity labeling, iso vs. no iso)” value ([5]; α1C-APEX2 cardiomyocytes) of the same compound?
**A.** ~50%

**Q.** What about the “increase in PKA catalytic subunit (proximity labeling, iso vs. no iso)” value ([5]; α1C-APEX2 cardiomyocytes) of the same compound?
**A.** 50%

**Q.** And the “reduction in Sorbin and SH3 domain containing 2 (Sorbs2)” value ([5]; α1C-APEX2 cardiomyocytes, isoproterenol 10 minutes)?
**A.** ~57%

**Q.** And the “decrease in Rad (proximity labeling, iso vs. no iso)” value ([5]; β2B-APEX2 cardiomyocytes)?
**A.** 30%

**Q.** And the “increase in PKA catalytic subunit (proximity labeling, iso vs. no iso)” value ([5]; β2B-APEX2 cardiomyocytes)?
**A.** 68%

**Q.** What about the “decrease in Rad (proximity labeling, iso vs. no iso)” value [6] of the same compound?
**A.** 36%

**Q.** What about the “effect on the amount of Rad (whole-cell, not proximity labeled)” value [7] of the same compound?
**A.** no significant effect; also recorded: unchanged

**Q.** And the “decrease of Rad localized at the membrane” value [8]?
**A.** 21%±3%

**Q.** What about the “increase of cytosolic Rad” value [8] of the same compound?
**A.** 20%±5%
